Results taken from US11851449B2, “Heterocyclic amide compounds having an RORvt inhibitory action” (TAKEDA PHARMACEUTICAL COMPANY LIMITED, priority 2013, dated 2023).
Counter-ions that a name gives are not always drawn.

Tests used:
RORγt [1] = target: T1, RORγt (Homo sapiens, UniProt P51449); assay: RORγt binding test (TR-FRET, fluorescent-labeled cholesterol); conditions: read-out: binding inhibitory rate (%) of fluorescent-labeled cholesterol to RORγt at test compound 1 μM
T1 sequence (P51449 1-497 isoform P51449-2): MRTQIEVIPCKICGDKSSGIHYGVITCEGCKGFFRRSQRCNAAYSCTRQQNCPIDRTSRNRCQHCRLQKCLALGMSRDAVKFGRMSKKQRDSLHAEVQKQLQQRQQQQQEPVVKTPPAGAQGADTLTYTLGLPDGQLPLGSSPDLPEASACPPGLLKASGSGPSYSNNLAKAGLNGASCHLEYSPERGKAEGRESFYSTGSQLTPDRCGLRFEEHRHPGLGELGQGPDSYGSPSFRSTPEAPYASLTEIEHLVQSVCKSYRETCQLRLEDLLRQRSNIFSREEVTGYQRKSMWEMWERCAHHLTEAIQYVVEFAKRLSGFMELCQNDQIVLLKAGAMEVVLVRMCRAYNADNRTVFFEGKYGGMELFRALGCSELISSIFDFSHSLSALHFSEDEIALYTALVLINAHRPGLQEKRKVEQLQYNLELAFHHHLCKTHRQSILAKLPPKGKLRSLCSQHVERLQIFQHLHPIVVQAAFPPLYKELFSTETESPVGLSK
In short: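 His-tagged RORγt and BODIPY-cholesterol were incubated with compound for 20 min at room temperature in Tris-HCl pH 7.5, 100 mM NaCl, 1 mM DTT and 0.1% BSA. Terbium anti-His antibody was then added for a further 20 min.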

RORγt [2] = target: T1, RORγt; assay: Cofactor recruitment test (Alpha Screen, biotinylated SRC-1 peptide); format: biochemical; conditions: read-out: signal value inhibitory rate (%) at test compound 1 μM
Description: Cofactor Recruitment Test
Cofactor recruitment test was performed by Alpha Screen (Histidine Detection Kit, PerkinElmer) method. First, a test compound was diluted with an assay buffer (50 mM Tris-HCl (pH 7.5), 50 mM KCl, 1 mM DTT, 0.1% BSA) and added to a 384 well plate by 5 μL. […] The mixture was stood in a dark place for 1 hr, and the signal value was measured by Envision (PerkinElmer).

RORγt [3] = target: T1, RORγt; assay: Jurkat reporter test (human IL-17 ROR response element luciferase reporter); format: cell-based; conditions: Jurkat, read-out: luminescence level inhibitory rate (%) at test compound 3 μM
In short: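 Jurkat cells were electroporated (1350 V, 10 ms, 3 pulses) with reporter constructs, then cultured overnight with compound in RPMI containing 10% lipid-reduced FCS, 10 mM HEPES pH 7.5 and 5 μM lovastatin. Luciferase was quantified by Bright-Glo luminescence after 10 min at room temperature.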

CCC(=O)N[C@@H](C(=O)Nc1ccc([Si](C)(C)C)c(F)c1)c1ccc(COC)cc1 [Example 79, N-((1R)-2-((3-fluoro-4-(trimethylsilyl)phenyl)amino)-1-(4-(methoxymethyl)phenyl)-2-oxoethyl)propanamide]
inhibition at 1 µM (RORγt [1]): 103% | inhibition at 1 µM (RORγt [2]): 93% | inhibition at 3 µM (RORγt [3]): 98.4%

COCc1ccc([C@@H](NC(=O)CCS(C)(=O)=O)C(=O)Nc2ccc([Si](C)(C)C)c(F)c2)cc1 [Example 80, N-((1R)-2-((3-fluoro-4-(trimethylsilyl)phenyl)amino)-1-(4-(methoxymethyl)phenyl)-2-oxoethyl)-3-(methylsulfonyl)propanamide]
inhibition at 1 µM (RORγt [1]): 102% | inhibition at 1 µM (RORγt [2]): 93.8% | inhibition at 3 µM (RORγt [3]): 100%

COCc1ccc([C@@H](NC(=O)CS(C)(=O)=O)C(=O)Nc2ccc([Si](C)(C)C)c(F)c2)cc1 [Example 81, (2R)—N-(3-fluoro-4-(trimethylsilyl)phenyl)-2-(4-(methoxymethyl)phenyl)-2-(((methylsulfonyl)acetyl)amino)acetamide]
inhibition at 1 µM (RORγt [1]): 103% | inhibition at 1 µM (RORγt [2]): 94.9% | inhibition at 3 µM (RORγt [3]): 98.3%

COCc1ccc([C@@H](NC(=O)c2cc(O)no2)C(=O)Nc2cc(F)c([Si](C)(C)C)c(F)c2)cc1 [Example 82, N-((1R)-2-((3,5-difluoro-4-(trimethylsilyl)phenyl)amino)-1-(4-(methoxymethyl)phenyl)-2-oxoethyl)-3-hydroxy-1,2-oxazole-5-carboxamide]
inhibition at 1 µM (RORγt [1]): 103% | inhibition at 1 µM (RORγt [2]): 96.8% | inhibition at 3 µM (RORγt [3]): 97%

COc1ccc([C@@H](NC(=O)c2cc(O)no2)C(=O)Nc2ccc([Si](C)(C)C)c(F)c2)cc1 [Example 83, N-((1R)-2-((3-fluoro-4-(trimethylsilyl)phenyl)amino)-1-(4-methoxyphenyl)-2-oxoethyl)-3-hydroxy-1,2-oxazole-5-carboxamide]
inhibition at 1 µM (RORγt [1]): 100% | inhibition at 1 µM (RORγt [2]): 86.5% | inhibition at 3 µM (RORγt [3]): 63.2%

COCc1ccc([C@@H](NC(=O)C2CC2(F)F)C(=O)Nc2ccc([Si](C)(C)C)c(F)c2)cc1 (stereo partly drawn) [Example 84, 2,2-difluoro-N-((1R)-2-((3-fluoro-4-(trimethylsilyl)phenyl)amino)-1-(4-(methoxymethyl)phenyl)-2-oxoethyl)cyclopropanecarboxamide]
inhibition at 1 µM (RORγt [1]): 101% | inhibition at 1 µM (RORγt [2]): 94.4% | inhibition at 3 µM (RORγt [3]): 100%

COCc1ccc([C@@H](NC(=O)CO)C(=O)Nc2ccc([Si](C)(C)C)c(F)c2)cc1 [Example 85, (2R)—N-(3-fluoro-4-(trimethylsilyl)phenyl)-2-(glycoloylamino)-2-(4-(methoxymethyl)phenyl)acetamide]
inhibition at 1 µM (RORγt [1]): 103% | inhibition at 1 µM (RORγt [2]): 90.1% | inhibition at 3 µM (RORγt [3]): 99%

COCc1ccc([C@@H](NC(=O)CNC(C)=O)C(=O)Nc2ccc([Si](C)(C)C)c(F)c2)cc1 [Example 86, N^2-acetyl-N-((1R)-2-((3-fluoro-4-(trimethylsilyl)phenyl)amino)-1-(4-(methoxymethyl)phenyl)-2-oxoethyl)glycinamide]
inhibition at 1 µM (RORγt [1]): 102% | inhibition at 1 µM (RORγt [2]): 95.2% | inhibition at 3 µM (RORγt [3]): 99.1%

COCc1ccc([C@@H](NC(=O)C2CCN(C(C)=O)CC2)C(=O)Nc2ccc([Si](C)(C)C)c(F)c2)cc1 [Example 87, 1-acetyl-N-((1R)-2-((3-fluoro-4-(trimethylsilyl)phenyl)amino)-1-(4-(methoxymethyl)phenyl)-2-oxoethyl)piperidine-4-carboxamide]
inhibition at 1 µM (RORγt [1]): 102% | inhibition at 1 µM (RORγt [2]): 83.9% | inhibition at 3 µM (RORγt [3]): 98.2%

COCc1ccc([C@@H](NC(=O)C2CCOCC2)C(=O)Nc2ccc([Si](C)(C)C)c(F)c2)cc1 [Example 88, N-((1R)-2-((3-fluoro-4-(trimethylsilyl)phenyl)amino)-1-(4-(methoxymethyl)phenyl)-2-oxoethyl)tetrahydro-2H-pyran-4-carboxamide]
inhibition at 1 µM (RORγt [1]): 103% | inhibition at 1 µM (RORγt [2]): 90.7% | inhibition at 3 µM (RORγt [3]): 98.1%

COCc1ccc([C@@H](NC(=O)CC2CCOCC2)C(=O)Nc2ccc([Si](C)(C)C)c(F)c2)cc1 [Example 89, (2R)—N-(3-fluoro-4-(trimethylsilyl)phenyl)-2-(4-(methoxymethyl)phenyl)-2-((tetrahydro-2H-pyran-4-ylacetyl)amino)acetamide]
inhibition at 1 µM (RORγt [1]): 103% | inhibition at 1 µM (RORγt [2]): 95.5% | inhibition at 3 µM (RORγt [3]): 101%

CCNC(=O)N[C@@H](C(=O)Nc1ccc([Si](C)(C)C)c(F)c1)c1ccc(COC)cc1 [Example 90, (2R)-2-((ethylcarbamoyl)amino)-N-(3-fluoro-4-(trimethylsilyl)phenyl)-2-(4-(methoxymethyl)phenyl)acetamide]
inhibition at 1 µM (RORγt [1]): 102% | inhibition at 1 µM (RORγt [2]): 96% | inhibition at 3 µM (RORγt [3]): 101%

COCc1ccc([C@@H](NC(=O)C2CC(F)(F)C2)C(=O)Nc2ccc([Si](C)(C)C)c(F)c2)cc1 [Example 91, 3,3-difluoro-N-((1R)-2-((3-fluoro-4-(trimethylsilyl)phenyl)amino)-1-(4-(methoxymethyl)phenyl)-2-oxoethyl)cyclobutanecarboxamide]
inhibition at 1 µM (RORγt [1]): 102% | inhibition at 1 µM (RORγt [2]): 94.6% | inhibition at 3 µM (RORγt [3]): 98%

COCc1ccc([C@@H](NC(=O)CCC(F)F)C(=O)Nc2ccc([Si](C)(C)C)c(F)c2)cc1 [Example 92, 4,4-difluoro-N-((1R)-2-((3-fluoro-4-(trimethylsilyl)phenyl)amino)-1-(4-(methoxymethyl)phenyl)-2-oxoethyl)butanamide]
inhibition at 1 µM (RORγt [1]): 102% | inhibition at 1 µM (RORγt [2]): 92.8% | inhibition at 3 µM (RORγt [3]): 98.8%

COCc1ccc([C@@H](NC(=O)CC(F)(F)F)C(=O)Nc2ccc([Si](C)(C)C)c(F)c2)cc1 [Example 93, 3,3,3-trifluoro-N-((1R)-2-((3-fluoro-4-(trimethylsilyl)phenyl)amino)-1-(4-(methoxymethyl)phenyl)-2-oxoethyl)propanamide]
inhibition at 1 µM (RORγt [1]): 102% | inhibition at 1 µM (RORγt [2]): 92.3% | inhibition at 3 µM (RORγt [3]): 99.1%

COCc1ccc([C@@H](NC(=O)CCC(F)(F)F)C(=O)Nc2ccc([Si](C)(C)C)c(F)c2)cc1 [Example 94, 4,4,4-trifluoro-N-((1R)-2-((3-fluoro-4-(trimethylsilyl)phenyl)amino)-1-(4-(methoxymethyl)phenyl)-2-oxoethyl)butanamide]
inhibition at 1 µM (RORγt [1]): 102% | inhibition at 1 µM (RORγt [2]): 91.5% | inhibition at 3 µM (RORγt [3]): 101%

COCc1ccc([C@@H](NC(=O)N2CC[C@@H](F)C2)C(=O)Nc2ccc([Si](C)(C)C)c(F)c2)cc1 [Example 95, (3R)-3-fluoro-N-((1R)-2-((3-fluoro-4-(trimethylsilyl)phenyl)amino)-1-(4-(methoxymethyl)phenyl)-2-oxoethyl)pyrrolidine-1-carboxamide]
inhibition at 1 µM (RORγt [1]): 99.3% | inhibition at 1 µM (RORγt [2]): 93.8% | inhibition at 3 µM (RORγt [3]): 99.8%

COCc1ccc([C@@H](NC(=O)N2CC[C@H](F)C2)C(=O)Nc2ccc([Si](C)(C)C)c(F)c2)cc1 [Example 96, (3S)-3-fluoro-N-((1R)-2-((3-fluoro-4-(trimethylsilyl)phenyl)amino)-1-(4-(methoxymethyl)phenyl)-2-oxoethyl)pyrrolidine-1-carboxamide]
inhibition at 1 µM (RORγt [1]): 98.6% | inhibition at 1 µM (RORγt [2]): 91.2% | inhibition at 3 µM (RORγt [3]): 99.5%

COCc1ccc([C@@H](NC(=O)CN2CCOCC2)C(=O)Nc2ccc([Si](C)(C)C)c(F)c2)cc1 [Example 97, (2R)—N-(3-fluoro-4-(trimethylsilyl)phenyl)-2-(4-(methoxymethyl)phenyl)-2-((morpholin-4-ylacetyl)amino)acetamide hydrochloride]
inhibition at 1 µM (RORγt [1]): 102% | inhibition at 1 µM (RORγt [2]): 93.6% | inhibition at 3 µM (RORγt [3]): 98.3%

COCc1ccc([C@@H](NC(=O)c2cc(O)no2)C(=O)Nc2cc(F)c([Si](C)(C)C)cc2F)cc1 [Example 98, N-((1R)-2-((2,5-difluoro-4-(trimethylsilyl)phenyl)amino)-1-(4-(methoxymethyl)phenyl)-2-oxoethyl)-3-hydroxy-1,2-oxazole-5-carboxamide]
inhibition at 1 µM (RORγt [1]): 102% | inhibition at 1 µM (RORγt [2]): 95.8% | inhibition at 3 µM (RORγt [3]): 99.2%

COc1ccc([C@@H](NC(=O)c2cc(O)no2)C(=O)Nc2cc(F)c([Si](C)(C)C)c(F)c2)cc1 [Example 99, N-((1R)-2-((3,5-difluoro-4-(trimethylsilyl)phenyl)amino)-1-(4-methoxyphenyl)-2-oxoethyl)-3-hydroxy-1,2-oxazole-5-carboxamide]
inhibition at 1 µM (RORγt [1]): 102% | inhibition at 1 µM (RORγt [2]): 94.3% | inhibition at 3 µM (RORγt [3]): 99.9%
